Assay results from article PMC9403976, “Elucidating the path to Plasmodium prolyl-tRNA synthetase inhibitors that overcome halofuginone resistance” (Nature Communications, 2022).
pKd: −log10 of the molar value. “And” between values parts separate entries of the source, which are not always exact repeats. Identical values can stand only once. Like-named read-outs stand apart in the source and are kept apart here.

Key:
PfcProRS = target: T1, PfcProRS (Plasmodium falciparum, UniProt Q8I5R7); format: binding; settings: for dose-response signal (normalized), SI Fig 8: single replicates
T1 construct: made in house; host or cells: E. coli SoluBL-21

HsProRS = HsProRS (Homo sapiens, UniProt P07814); assay: TR-FRET ligand displacement assay with tracer MAT379 (CoraFluor-1-Halo and anti-His6 antibody formats); format: binding; parameters: made in house; host or cells: E. coli SoluBL-21; settings: for TR-FRET dose-response, normalized signal (SI Fig 11): individual replicates
P. falciparum Dd2-2D4 = assay: P. falciparum asexual blood stage (ABS) growth assay, SYBR Green, 72 h, wild-type parasites; format: cell-based, Plasmodium falciparum; settings: Plasmodium falciparum, DD2; SI Fig 16b; values on -log scale; read-out: ABS - Dd2-2D4 (converted)

HsProRS, sequence (P07814 996-1512): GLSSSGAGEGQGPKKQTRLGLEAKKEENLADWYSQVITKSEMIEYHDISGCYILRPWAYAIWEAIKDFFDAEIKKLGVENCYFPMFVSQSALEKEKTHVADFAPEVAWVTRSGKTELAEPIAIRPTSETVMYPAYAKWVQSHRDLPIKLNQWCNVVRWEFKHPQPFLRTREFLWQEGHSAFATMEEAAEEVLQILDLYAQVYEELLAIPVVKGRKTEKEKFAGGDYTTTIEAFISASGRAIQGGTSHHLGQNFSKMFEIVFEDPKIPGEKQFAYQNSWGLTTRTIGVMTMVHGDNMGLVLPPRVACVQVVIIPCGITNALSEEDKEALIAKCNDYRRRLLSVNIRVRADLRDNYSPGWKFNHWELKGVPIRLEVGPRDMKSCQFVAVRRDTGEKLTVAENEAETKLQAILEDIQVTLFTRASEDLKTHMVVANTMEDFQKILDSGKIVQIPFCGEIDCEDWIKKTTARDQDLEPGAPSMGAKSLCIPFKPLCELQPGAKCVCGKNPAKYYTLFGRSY
T1 sequence (Q8I5R7 249-746): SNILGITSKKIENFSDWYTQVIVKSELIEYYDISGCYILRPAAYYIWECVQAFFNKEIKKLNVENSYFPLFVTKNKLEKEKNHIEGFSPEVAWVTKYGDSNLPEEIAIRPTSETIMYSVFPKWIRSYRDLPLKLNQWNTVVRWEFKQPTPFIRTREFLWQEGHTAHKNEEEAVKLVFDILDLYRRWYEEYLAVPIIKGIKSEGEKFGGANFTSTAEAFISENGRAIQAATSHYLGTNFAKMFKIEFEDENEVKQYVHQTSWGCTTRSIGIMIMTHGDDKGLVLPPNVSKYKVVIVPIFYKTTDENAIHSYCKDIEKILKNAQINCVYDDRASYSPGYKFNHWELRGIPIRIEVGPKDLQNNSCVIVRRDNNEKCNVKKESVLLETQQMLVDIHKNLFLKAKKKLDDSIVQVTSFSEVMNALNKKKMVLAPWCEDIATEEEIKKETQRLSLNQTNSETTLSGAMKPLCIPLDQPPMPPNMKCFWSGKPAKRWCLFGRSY

In the case of O=C(NC1Cc2ccccc2C1)c1nccnc1NC(=O)N1CCC(CCO)CC1 [compound 12], the “dose-response signal (normalized), SI Fig 8” value (PfcProRS; Log[inhibitor] (M) -5.000) was 1.96E-01 and 6.39E-02 and 9.88E-02, the “dose-response signal (normalized), SI Fig 8” value (PfcProRS; Log[inhibitor] (M) -5.301) was 1.70E-01 and 1.45E-01 and 2.26E-01 and the “dose-response signal (normalized), SI Fig 8” value (PfcProRS; Log[inhibitor] (M) -5.601) was 3.61E-01 and 2.68E-01 and 3.67E-01. The “dose-response signal (normalized), SI Fig 8” value (PfcProRS; Log[inhibitor] (M) -5.904) was 5.30E-01 and 5.32E-01 and 5.86E-01, the “dose-response signal (normalized), SI Fig 8” value (PfcProRS; Log[inhibitor] (M) -6.208) was 7.40E-01 and 8.32E-01 and 8.18E-01 and the “dose-response signal (normalized), SI Fig 8” value (PfcProRS; Log[inhibitor] (M) -6.509) was 9.11E-01 and 8.45E-01 and 9.67E-01. For the same compound, the “dose-response signal (normalized), SI Fig 8” value (PfcProRS; Log[inhibitor] (M) -6.796) was 1.07E+00 and 9.35E-01 and 8.42E-01, the “dose-response signal (normalized), SI Fig 8” value (PfcProRS; Log[inhibitor] (M) -7.108) was 1.04E+00 and 9.91E-01 and 9.07E-01 and the “dose-response signal (normalized), SI Fig 8” value (PfcProRS; Log[inhibitor] (M) -7.409) was 1.05E+00 and 1.07E+00 and 9.30E-01. For the same compound, the “dose-response signal (normalized), SI Fig 8” value (PfcProRS; Log[inhibitor] (M) -7.710) was 9.50E-01 and 9.05E-01 and 1.01E+00, the “dose-response signal (normalized), SI Fig 8” value (PfcProRS; Log[inhibitor] (M) -8.000) was 1.00E+00 and 9.33E-01 and 9.19E-01 and the “dose-response signal (normalized), SI Fig 8” value (PfcProRS; Log[inhibitor] (M) -8.301) was 1.00E+00 and 9.74E-01 and 1.08E+00. The “dose-response signal (normalized), SI Fig 8” value (PfcProRS; Log[inhibitor] (M) -8.602) was 9.86E-01 and 9.74E-01 and 9.65E-01, the “dose-response signal (normalized), SI Fig 8” value (PfcProRS; Log[inhibitor] (M) -9.000) was 9.41E-01 and 9.53E-01 and 9.73E-01 and the “dose-response signal (normalized), SI Fig 8” value (PfcProRS; Log[inhibitor] (M) -9.301) was 9.78E-01 and 8.31E-01 and 1.01E+00. The “PfcProRS -- best Kd” value (PfcProRS; SI Fig 16a, values on -log scale) was 6.470, the Kd (HsProRS; HsProRS (KD [nM]) mean, no added proline/ATP (-)) was 687 nM and the pKd (HsProRS; HsProRS - best Kd, SI Fig 16a, values on -log scale) was 6.82. The “normalized TR-FRET ligand displacement signal, dose-response replicates (SI Fig 6)” value (HsProRS; Log[inhibitor] (M) -5.000) was 1.59E-01 and 1.60E-01 and 2.09E-01, the “TR-FRET dose-response, normalized signal (SI Fig 11)” value (HsProRS; Log[inhibitor] (M) -5.000) was 3.68E-02 (2×) and 3.81E-02 and the “normalized TR-FRET ligand displacement signal, dose-response replicates (SI Fig 6)” value (HsProRS; Log[inhibitor] (M) -5.301) was 3.23E-01 and 2.51E-01 and 1.66E-01. The “TR-FRET dose-response, normalized signal (SI Fig 11)” value (HsProRS; Log[inhibitor] (M) -5.301) was 1.17E-01 and 1.16E-01 and 1.37E-01, the “normalized TR-FRET ligand displacement signal, dose-response replicates (SI Fig 6)” value (HsProRS; Log[inhibitor] (M) -5.601) was 4.15E-01 (2×) and 3.76E-01 and the “TR-FRET dose-response, normalized signal (SI Fig 11)” value (HsProRS; Log[inhibitor] (M) -5.601) was 3.29E-01 and 2.78E-01 and 2.37E-01. The “normalized TR-FRET ligand displacement signal, dose-response replicates (SI Fig 6)” value (HsProRS; Log[inhibitor] (M) -5.904) was 6.44E-01 and 5.20E-01 and 5.13E-01, the “TR-FRET dose-response, normalized signal (SI Fig 11)” value (HsProRS; Log[inhibitor] (M) -5.904) was 4.76E-01 and 4.29E-01 and 4.93E-01 and the “normalized TR-FRET ligand displacement signal, dose-response replicates (SI Fig 6)” value (HsProRS; Log[inhibitor] (M) -6.208) was 7.49E-01 and 7.87E-01 and 7.20E-01. For the same compound, the “TR-FRET dose-response, normalized signal (SI Fig 11)” value (HsProRS; Log[inhibitor] (M) -6.208) was 5.93E-01 and 6.01E-01 and 5.70E-01, the “normalized TR-FRET ligand displacement signal, dose-response replicates (SI Fig 6)” value (HsProRS; Log[inhibitor] (M) -6.509) was 9.12E-01 and 8.62E-01 and 8.67E-01 and the “TR-FRET dose-response, normalized signal (SI Fig 11)” value (HsProRS; Log[inhibitor] (M) -6.509) was 7.07E-01 and 6.82E-01 and 7.18E-01. For the same compound, the “normalized TR-FRET ligand displacement signal, dose-response replicates (SI Fig 6)” value (HsProRS; Log[inhibitor] (M) -6.796) was 1.06E+00 and 1.12E+00 and 9.20E-01, the “TR-FRET dose-response, normalized signal (SI Fig 11)” value (HsProRS; Log[inhibitor] (M) -6.796) was 7.97E-01 and 7.75E-01 and 7.79E-01 and the “normalized TR-FRET ligand displacement signal, dose-response replicates (SI Fig 6)” value (HsProRS; Log[inhibitor] (M) -7.108) was 1.07E+00 and 1.02E+00 and 1.12E+00. For the same compound, the “TR-FRET dose-response, normalized signal (SI Fig 11)” value (HsProRS; Log[inhibitor] (M) -7.108) was 8.56E-01 and 8.75E-01 and 8.83E-01, the “normalized TR-FRET ligand displacement signal, dose-response replicates (SI Fig 6)” value (HsProRS; Log[inhibitor] (M) -7.409) was 1.02E+00 and 1.06E+00 (2×) and the “TR-FRET dose-response, normalized signal (SI Fig 11)” value (HsProRS; Log[inhibitor] (M) -7.409) was 8.85E-01 and 8.47E-01 and 8.63E-01. For the same compound, the “normalized TR-FRET ligand displacement signal, dose-response replicates (SI Fig 6)” value (HsProRS; Log[inhibitor] (M) -7.710) was 9.85E-01 and 1.01E+00 and 9.72E-01, the “TR-FRET dose-response, normalized signal (SI Fig 11)” value (HsProRS; Log[inhibitor] (M) -7.710) was 8.80E-01 and 8.88E-01 and 8.59E-01 and the “normalized TR-FRET ligand displacement signal, dose-response replicates (SI Fig 6)” value (HsProRS; Log[inhibitor] (M) -8.000) was 9.44E-01 and 9.64E-01 and 9.22E-01. For the same compound, the “TR-FRET dose-response, normalized signal (SI Fig 11)” value (HsProRS; Log[inhibitor] (M) -8.000) was 9.20E-01 and 9.38E-01 and 9.24E-01, the “normalized TR-FRET ligand displacement signal, dose-response replicates (SI Fig 6)” value (HsProRS; Log[inhibitor] (M) -8.301) was 9.32E-01 and 1.05E+00 and 8.26E-01 and the “TR-FRET dose-response, normalized signal (SI Fig 11)” value (HsProRS; Log[inhibitor] (M) -8.301) was 8.82E-01 and 8.99E-01 and 9.20E-01. The “normalized TR-FRET ligand displacement signal, dose-response replicates (SI Fig 6)” value (HsProRS; Log[inhibitor] (M) -8.602) was 1.02E+00 and 1.07E+00 and 9.72E-01, the “TR-FRET dose-response, normalized signal (SI Fig 11)” value (HsProRS; Log[inhibitor] (M) -8.602) was 9.41E-01 and 8.91E-01 and 9.25E-01 and the “normalized TR-FRET ligand displacement signal, dose-response replicates (SI Fig 6)” value (HsProRS; Log[inhibitor] (M) -9.000) was 9.71E-01 and 8.87E-01 and 1.00E+00. For the same compound, the “TR-FRET dose-response, normalized signal (SI Fig 11)” value (HsProRS; Log[inhibitor] (M) -9.000) was 9.29E-01 and 9.20E-01 and 9.52E-01, the “normalized TR-FRET ligand displacement signal, dose-response replicates (SI Fig 6)” value (HsProRS; Log[inhibitor] (M) -9.301) was 1.06E+00 and 9.50E-01 and 9.98E-01 and the “TR-FRET dose-response, normalized signal (SI Fig 11)” value (HsProRS; Log[inhibitor] (M) -9.301) was 9.00E-01 and 9.10E-01 and 9.03E-01. The EC50 (P. falciparum Dd2-2D4) was 153 nM.
